Source: patent publication US20260007634A1, “PHARMACEUTICAL COMPOSITIONS FOR THE TREATMENT OF ALLERGIC DISEASES” (KINKI UNIVERSITY, priority 2022, published 2026)

Tests used:
[1] = tested on: B cells collected from mice; experiment: BAFF-induced differentiation into plasma cells (CD138 flow cytometry); assay type: cell-based, mouse; conditions: 100 ng/mL BAFF, 10 days; 100 μM mangiferin, 20 μM 1,3,5,6-tetrahydroxyxanthone, 10 μM others; vs BAFF-added group
Experimental: (§1) B cells collected from mice were cultured in RPMI 1640 medium for 1 day. Then, 100 μM mangiferin, 10 μM mangiferin 8a, 10 μM norathyriol, 20 μM 1,3,5,6-tetrahydroxyxanthone, 10 μM xanthohydrol, 10 μM α-mangostin, 10 μM of γ-mangostin were added to B cell, and after 1 day of culture, 100 ng/mL of BAFF was added, followed by 10 days of culture. After 10 days of culture, cells were stained with anti-CD138 antibody, a marker of plasma cells, and CD138 expression was measured using BD LSRFortessa.
In all figures, the horizontal axis represents the expression level of CD138 and the vertical axis represents the number of cells.

[2] = tested on: B cells collected from mice; experiment: BAFF-induced differentiation into mature B cells (IgM/IgD flow cytometry); assay type: cell-based, mouse; conditions: 100 ng/mL BAFF, 10 days, 100 μM mangiferin, 20 μM 1,3,5,6-tetrahydroxyxanthone, 10 μM others; for population IgM positive and IgD positive (mature B cells): control 0, BAFF only 45.6; for population IgM positive and IgD negative (immature B cells): control 0.529, BAFF only 42.3; for population IgM negative and IgD negative (pre-B cells): control 99.5, BAFF only 11.7
Experimental: as §1, with “anti-IgM and anti-IgD antibodies, markers” for “anti-CD138 antibody, a marker”, “B” for “plasma”, “the” for “CD138”, “expression of IgM and IgD” for “expression”, “LSRFortessa. Note that IgM negative and IgD negative indicates pre-B cells, IgM positive and IgD negative indicates immature B cells, and IgM positive and IgD positive indicates mature B cells.” for “LSRFortessa.”

NF-κB p52 = experiment: BAFF-stimulated B cells, nuclear NF-κB p52 (Western blotting); assay type: cell-based, mouse; conditions: vs 100 ng/mL BAFF; 100 μM mangiferin, 20 μM 1,3,5,6-tetrahydroxyxanthone, 10 μM others
Experimental: (§2) Spleens were harvested from 6-week-old male Balb/c mice and B cells were isolated. After isolation, the cells were seeded in […] dish and cultured in RPMI 1640 medium for 1 day and used as control. In addition, B cells were seeded into 100 mm^2 dish, and after 1 day of culture, 100 ng/mL BAFF was added and cultured for 1 h. Furthermore, B cells were seeded in […] dish, and after 1 day of culture, 100 μM mangiferin, 10 μM mangiferin 8a, 10 μM norathyriol, 20 μM 1,3,5,6-tetrahydroxyxanthone, 10 μM xanthohydrol, 10 μM of α-mangostin, and 10 μM of γ-mangostin were added to B cells, and after 23 h, 100 ng/mL BAFF was added to each, and the cells were incubated for 1 h. All were incubated at 37° C. and 5% CO2.
(§3) Proteins were extracted with cell lysate and used as samples. Each sample was transferred to a PVDF membrane after SDSPAGE and assayed with anti-phospho-NIK, anti-NIK, anti-NF-κB p52, anti-NF-κB p65 and anti-Lamin antibodies.
(§4) The antibody species is indicated in the vertical direction. Specifically, in the case of anti-phospho-NIK antibody (described as “Phospho-NIK”), anti-NIK antibody (described as “NIK”), anti-NF-κB p52 antibody (described as “NF-κB p52 nuclear”), anti-NF-κB p65 antibody (described as “NF-κB p65 nuclear”) and anti-Lamin antibody (described as “Lamin”).

NIK = target: T1, NIK (Mus musculus, UniProt Q9WUL6); experiment: BAFF-induced NIK activation in B cells (Western blotting, phospho-NIK); assay type: cell-based; conditions: for phospho-NIK band (immunoblotting): 100 ng/mL BAFF 1 h after 23 h compound, 100 μM mangiferin, 20 μM 1,3,5,6-tetrahydroxyxanthone, 10 μM others; for inhibition of NIK activity compared with mangiferin: general statement in the description, referring to the examples
T1 construct: Proteins were extracted with cell lysate and used as samples; endogenous in cells; host or cells: primary splenic B cells from 6-week-old male Balb/c mice
Experimental: as §2, §3, §4

IL-5 = experiment: Auricular tissue IL-5 ELISA, atopic dermatitis mice; assay type: in vivo, mouse; conditions: day 7, topical application, control 15, vehicle 32
Experimental: (§5) MC903 at 2 nM was applied to the right auricle of a 6-week-old male Balb/c (Japan SLC Inc.). Starting 8 h later, 5% norathyriol aqueous solution (1 mL of ethanol containing […] of norathyriol), betamethasone ointment, and delgocitinib ointment were applied to the auricle for 7 days. The measurement of auricular skin swelling was calculated by calipers. The day on which the first application of the compound was made was defined as day 0. Betamethasone and delgocitinib are currently in clinical use in atopic dermatitis and were used as control drugs in this example.
The mouse IL-5 ELISA kit (R&D) was used for this measurement.

TSLP = experiment: Auricular tissue TSLP ELISA, atopic dermatitis mice; assay type: in vivo, mouse; conditions: day 7, topical application, control 317, vehicle 1533
Experimental: as §5
The mouse TSLP ELISA kit (R&D) was used for this measurement.

IL-4 = experiment: Auricular tissue IL-4 ELISA, atopic dermatitis mice; assay type: in vivo, mouse; conditions: day 7, topical application, control 56, vehicle 152
Experimental: as §5
The mouse IL-4 ELISA kit (R&D) was used for this measurement.

IgE antibody = experiment: Serum IgE antibody ELISA, atopic dermatitis mice; assay type: in vivo, mouse; conditions: day 7, topical application, control 1214, vehicle (MC903) 2588
Experimental: as §5
Serum was collected from mice on day 7 in Example 1, and IgE antibody production was measured by enzyme-linked immunosorbent assay (ELISA). This assay was performed using a mouse IgE antibody ELISA kit (R&D).

T1 sequence (Q9WUL6 whole entry): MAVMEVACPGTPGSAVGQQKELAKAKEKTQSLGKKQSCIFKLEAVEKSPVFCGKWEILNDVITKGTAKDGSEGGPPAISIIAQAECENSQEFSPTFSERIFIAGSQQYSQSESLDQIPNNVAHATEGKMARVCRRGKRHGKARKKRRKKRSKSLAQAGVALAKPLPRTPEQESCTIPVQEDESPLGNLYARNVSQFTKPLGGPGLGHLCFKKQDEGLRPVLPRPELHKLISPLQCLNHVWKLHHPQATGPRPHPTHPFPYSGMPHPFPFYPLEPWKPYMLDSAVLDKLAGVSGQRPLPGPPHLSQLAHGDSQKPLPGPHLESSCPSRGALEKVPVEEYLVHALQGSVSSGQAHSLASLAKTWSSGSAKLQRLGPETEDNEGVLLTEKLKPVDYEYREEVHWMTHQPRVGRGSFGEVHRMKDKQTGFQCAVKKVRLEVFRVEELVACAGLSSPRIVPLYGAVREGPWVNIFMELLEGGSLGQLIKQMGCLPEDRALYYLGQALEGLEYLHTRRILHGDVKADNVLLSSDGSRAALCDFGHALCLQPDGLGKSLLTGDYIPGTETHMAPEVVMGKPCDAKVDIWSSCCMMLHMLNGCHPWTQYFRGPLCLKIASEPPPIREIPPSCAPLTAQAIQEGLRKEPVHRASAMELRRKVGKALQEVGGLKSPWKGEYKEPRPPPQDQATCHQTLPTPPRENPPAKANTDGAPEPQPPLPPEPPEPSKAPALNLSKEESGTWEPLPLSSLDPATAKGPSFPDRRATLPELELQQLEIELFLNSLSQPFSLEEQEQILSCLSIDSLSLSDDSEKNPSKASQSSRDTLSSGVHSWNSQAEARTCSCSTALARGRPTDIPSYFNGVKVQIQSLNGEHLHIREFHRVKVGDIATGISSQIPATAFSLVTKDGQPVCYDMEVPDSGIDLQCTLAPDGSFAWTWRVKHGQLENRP

| Compound | CD138 expression [1] | population IgM positive and IgD positive (mature B cells) [2] | population IgM positive and IgD negative (immature B cells) [2] | population IgM negative and IgD negative (pre-B cells) [2] | nuclear NF-κB p52 band (immunoblotting) (NF-κB p52) | phospho-NIK band (immunoblotting) (NIK) | inhibition of NIK activity compared with mangiferin (NIK) | IL-5 secretion (IL-5) | TSLP secretion (TSLP) | IL-4 secretion (IL-4) | amount of IgE antibody (IgE antibody) |
| --- | --- | --- | --- | --- | --- | --- | --- | --- | --- | --- | --- |
| O=c1c2ccc(O)c(O)c2oc2cc(O)cc(O)c12 [1,3,5,6-tetrahydroxyxanthone] | significantly decreased CD138 expression | 0% | 2.92% | 96.5% | fainter | fainter | more inhibition of NIK activity than mangiferin |  |  |  |  |
| C[C@H]1C[C@H]2[C@@H]3CCC4=CC(=O)C=C[C@]4(C)[C@@]3(F)[C@@H](O)C[C@]2(C)[C@@]1(O)C(=O)CO [betamethasone] |  |  |  |  |  |  |  | 8 pg/mL | 651 pg/mL | 45 pg/mL | 1175 ng/mL |
| C[C@H]1CN(C(=O)CC#N)[C@]12CCN(c1ncnc3[nH]ccc13)C2 [delgocitinib] |  |  |  |  |  |  |  | 33 pg/mL | 971 pg/mL | 159 pg/mL | 1812 ng/mL |
| O=c1c2cc(O)c(O)cc2oc2cc(O)c([C@@H]3O[C@H](CO)[C@@H](O)[C@H](O)[C@H]3O)c(O)c12 [mangiferin] | significantly decreased CD138 expression | 0% | 3.24% | 95.8% | fainter | fainter |  |  |  |  |  |
| OC1c2ccccc2Oc2ccccc21 [xanthohydrol] | significantly decreased CD138 expression | 0% | 3.64% | 96.3% | fainter | fainter | more inhibition of NIK activity than mangiferin |  |  |  |  |
| COc1c(O)cc2oc3cc(O)c(CC=C(C)C)c(O)c3c(=O)c2c1CC=C(C)C [α-mangostin] | significantly decreased CD138 expression | 0.363% | 21.2% | 78.1% | fainter | fainter | more inhibition of NIK activity than mangiferin |  |  |  |  |
| CC(C)=CCc1c(O)cc2oc3cc(O)c(O)c(CC=C(C)C)c3c(=O)c2c1O [γ-mangostin] | significantly decreased CD138 expression | 0.561% | 19.7% | 79.7% | fainter | fainter | more inhibition of NIK activity than mangiferin |  |  |  |  |
